Like-named read-outs stand apart in the source and are kept apart here.
Target: T1, Mouse TMEM16A (Mus musculus, UniProt Q8BHY3)
T1 construct: expressed in transfected cells; host or cells: HEK-293T
T1 sequence (Q8BHY3 1-960): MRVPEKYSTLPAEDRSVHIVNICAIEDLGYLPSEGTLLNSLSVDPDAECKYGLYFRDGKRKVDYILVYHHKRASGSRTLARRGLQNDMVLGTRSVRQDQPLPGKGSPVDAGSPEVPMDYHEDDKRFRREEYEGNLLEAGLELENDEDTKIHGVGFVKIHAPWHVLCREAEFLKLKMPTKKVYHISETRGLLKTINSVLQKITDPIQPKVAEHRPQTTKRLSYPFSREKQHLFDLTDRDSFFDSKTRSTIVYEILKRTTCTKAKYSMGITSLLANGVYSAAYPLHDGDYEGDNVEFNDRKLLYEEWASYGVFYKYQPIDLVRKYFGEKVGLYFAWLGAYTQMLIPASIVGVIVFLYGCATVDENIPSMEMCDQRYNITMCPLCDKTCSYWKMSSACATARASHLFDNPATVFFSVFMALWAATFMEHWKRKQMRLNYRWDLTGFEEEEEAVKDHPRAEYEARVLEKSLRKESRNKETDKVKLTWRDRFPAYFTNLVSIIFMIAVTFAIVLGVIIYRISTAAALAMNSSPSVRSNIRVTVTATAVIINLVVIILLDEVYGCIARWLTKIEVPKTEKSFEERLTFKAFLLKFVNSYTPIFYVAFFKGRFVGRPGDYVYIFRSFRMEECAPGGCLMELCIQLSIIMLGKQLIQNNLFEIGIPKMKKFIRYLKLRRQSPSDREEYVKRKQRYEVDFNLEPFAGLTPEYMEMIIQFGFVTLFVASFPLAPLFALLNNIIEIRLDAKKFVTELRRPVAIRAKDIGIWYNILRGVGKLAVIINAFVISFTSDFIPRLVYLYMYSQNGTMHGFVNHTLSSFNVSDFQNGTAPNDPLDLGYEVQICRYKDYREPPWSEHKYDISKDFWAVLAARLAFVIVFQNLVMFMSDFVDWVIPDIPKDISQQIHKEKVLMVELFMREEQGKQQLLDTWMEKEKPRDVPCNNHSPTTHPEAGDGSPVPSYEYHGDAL
Test: Whole-cell concentration-jump protocol separating A9C block and activation, 300 nM [Ca2+]i
Type: cell-based
Conditions: for Ki: read-out: K i(0); for I a/I 0 for activation / fractional inhibition (I b/I 0): 30 μM [A9C]ext, +70 mV; for EC50 / IC50: [A9C]ext; for EC50: read-out: EC50 (b) activation; for IC50: read-out: IC50 (a) inhibition
Procedure: TMEM16A currents were measured with the whole‐cell or inside‐out patch configuration of the patch‐clamp technique as detailed in the Supporting Information. The exchange of solutions was achieved by using a local perfusion system consisting of eight tubes of 1.2 mm diameter in which the tip of the patch pipette was inserted. In some experiments, ultra‐rapid (<50 ms) changes in A9C concentration ([A9C]) (‘concentration jumps’) were achieved using a computer‐controlled perfusion system (Warner Instruments, Hamden, CT, USA).
The relationship between [A9C] and TMEM16A current inhibition was obtained by measuring the currents at the end of 250 ms V m steps from +20 to +120 mV in 20 mV increments elicited every 2 s from a holding V m of −70 mV. TMEM16A currents measured in the presence of A9C (I b) were normalized to currents measured in the absence of A9C (I 0) and plotted against [A9C]. The concentration–response curves obtained were fit with the Hill equation of the form: (1) Ib/Io=1/1+A9C/Ki^γ,
where K i is the apparent A9C dissociation constant from the inhibitory site and γ is the coefficient of cooperativity (Hill coefficient).
The dose–response curves for activation by A9C were fitted with a modified Hill equation of the form: (2) Ia/Io=1+Amax−1/1+A9C/Kd^h,
where I a is the current in the presence of A9C, A max is the maximal current activation, K d is the apparent A9C dissociation constant from the activating site and h is the coefficient of cooperativity (Hill coefficient).
The relationships between the K i or K d and V m were fitted with the Woodhull equation (Woodhull, 1973): (3) Kx=Kx0exp−δxzFVm/RT.
The subscript ‘x’ stands for either ‘i’ or ‘d’. Thus, K i(0) or K d(0) are the apparent A9C dissociation constants from the inhibitory or activating site at 0 mV, z is the A9C electric valence (−1), δ i or δ d is the fraction of the V m sensed by A9C when bound to the inhibitory or activating site, F is Faraday's constant, R is the universal gas constant and T is the absolute temperature.
To study the activating effect of extracellular A9C on TMEM16A currents in isolation from A9C‐mediated inhibition, the following stimulation protocol was used. Whole‐cell currents were measured in response to a constant V m of +70 mV and in the presence of 300 nM [Ca^2+]i. Under these recording conditions and in the absence of extracellular A9C, the TMEM16A current remained at a constant amplitude (Figure 5A). When A9C was rapidly applied to the bath solution (concentration jump), the current amplitude rapidly declined before increasing to a new steady‐state level (Figure 5A and 5B). As A9C was removed, a dramatic increase in current was observed followed by a rapid return of the current to the level measured in the absence of A9C (Figure 5A and 5B). […] Rapid washout of A9C led to the fast relief of channel block, while the allosteric activating effect appeared to persist. Thus, the inhibitory effect of A9C was estimated by back‐extrapolating the current amplitude (I b) to the point when the drug was added. The current activation (I a) was measured via back‐extrapolation of the transient current spike observed upon drug washout.
Each cell was exposed to various [A9C]ext, and the extent of blockage at each concentration expressed as I b/I 0. The extent of current activation at each [A9C]ext was assessed as I a/I 0.
To determine if the activating effect of [A9C]ext on the TMEM16A current is V m‐dependent, experiments similar to those described above were performed at constant V m of +10 and +40 mV (Figure 5C). From the average data presented in Figure 5C and Table 2, it can be concluded that both inhibition and activation are V m‐dependent.
As outlined in the previous section, the current inhibition and activation induced by extracellular A9C presented a very similar degree of V m‐dependence. […]

[1] = high (154 mM) [Cl−]ext, 300 nM [Ca2+]i
[2] = low (34 mM) [Cl−]ext, 300 nM [Ca2+]i

In the case of `O=C(O)c1c2ccccc2cc2ccccc12` [A9C, Anthracene‐9‐carboxylic acid], the Ki (300 nM [Ca2+]i (rounded in Discussion)) is reported as ~8.4 mM, the δ d (300 nM [Ca2+]i, Woodhull fit) is reported as 0.66 ± 0.03 and the δ i (300 nM [Ca2+]i, Woodhull fit) is reported as 0.68 ± 0.03. For the same molecule, the Kd (300 nM [Ca2+]i, extracellular A9C, Woodhull fit, read-out: K d(0) (apparent dissociation constant from activating site at 0 mV)) was 8.95 ± 0.378 mM, the Ki (300 nM [Ca2+]i, extracellular A9C, Woodhull fit) was 8.37 ± 0.372 mM and the “I a/I 0 for activation” value [1] was 2.0 ± 0.1. For the same molecule, the “fractional inhibition (I b/I 0)” value [1] was 0.70 ± 0.02, the “I a/I 0 for activation” value [2] was 8.2 ± 1.1 and the “fractional inhibition (I b/I 0)” value [2] was 0.46 ± 0.06. For the same molecule, the “h (b) Hill coefficient (activation)” value (V m 10 mV, 300 nM [Ca2+]i) was 1.1 ± 0.1 (n = 9), the “γ (a) Hill coefficient (inhibition)” value (V m 10 mV, 300 nM [Ca2+]i) was 0.4 ± 0.1 (n = 9) and the EC50 (V m 10 mV, 300 nM [Ca2+]i) was 5.23 ± 0.582 mM. For the same molecule, the IC50 (V m 10 mV, 300 nM [Ca2+]i) was 4.71 ± 0.478 mM, the “h (b) Hill coefficient (activation)” value (V m 40 mV, 300 nM [Ca2+]i) was 1.2 ± 0.1 (n = 11) and the “γ (a) Hill coefficient (inhibition)” value (V m 40 mV, 300 nM [Ca2+]i) was 0.4 ± 0.1 (n = 11). The EC50 (V m 40 mV, 300 nM [Ca2+]i) was 1.12 ± 0.126 mM, the IC50 (V m 40 mV, 300 nM [Ca2+]i) was 0.849 ± 0.14 mM and the “h (b) Hill coefficient (activation)” value (V m 70 mV, 300 nM [Ca2+]i) was 1.1 ± 0.1 (n = 11). The “γ (a) Hill coefficient (inhibition)” value (V m 70 mV, 300 nM [Ca2+]i) was 0.4 ± 0.1 (n = 11), the EC50 (V m 70 mV, 300 nM [Ca2+]i) was 0.44 ± 0.069 mM and the IC50 (V m 70 mV, 300 nM [Ca2+]i) was 0.171 ± 0.021 mM. For the same molecule, the “electric distance of activating binding site (δ d)” value (Woodhull analysis, rounded) was ~ 0.6.
